Earlier results as cited in patent US11596166B2 (priority 2017, dated 2023).

Test system: pellagra patients
Conditions: in vivo

O=C(O)c1cccnc1 [nicotinic acid]
acute mental symptoms: disappear rapidly, often over night | symptoms of pellagra: disappearance of many symptoms of the disease | time to blanching of acute erythematous dermal lesions with intact epithelium: ≤ 48 h | time to cessation of nausea and vomiting, normal bowel movements: 24 to 72 h | time to subsidence of redness and swelling of tongue, gums, mouth, throat, and vagina: 24 to 72 h
